Measurements reported in BindingDB's records for PubMed 2419545 (National Institutes of Health, 1986).
Substitutions are numbered along the chain they refer to. Several values for one entry are separate records, joined by “and”; a condition that tells them apart may be missing. Equal values may be shown once. Residues, ends and D or L forms follow the SMILES beside them.

Experiments:
Eledoisin = Eledoisin (Eledone moschata, UniProt P62934)
[1] = molecular target: Class E basic helix-loop-helix protein 22 (Mus musculus, UniProt Q8C6A8)
Class E basic helix-loop-helix protein 22, sequence (Q8C6A8 whole entry): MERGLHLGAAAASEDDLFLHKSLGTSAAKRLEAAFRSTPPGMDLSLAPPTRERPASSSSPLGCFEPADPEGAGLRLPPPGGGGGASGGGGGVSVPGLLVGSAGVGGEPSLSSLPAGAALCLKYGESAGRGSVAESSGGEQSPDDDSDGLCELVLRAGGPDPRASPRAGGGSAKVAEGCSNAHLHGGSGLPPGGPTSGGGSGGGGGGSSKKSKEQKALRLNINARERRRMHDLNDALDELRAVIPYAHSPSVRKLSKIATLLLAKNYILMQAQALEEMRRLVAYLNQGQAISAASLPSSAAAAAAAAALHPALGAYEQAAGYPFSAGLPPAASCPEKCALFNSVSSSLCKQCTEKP

Substance-K receptor = molecular target: T1, Substance-K receptor (Cavia porcellus, UniProt Q64077)
T1 sequence (Q64077 whole entry): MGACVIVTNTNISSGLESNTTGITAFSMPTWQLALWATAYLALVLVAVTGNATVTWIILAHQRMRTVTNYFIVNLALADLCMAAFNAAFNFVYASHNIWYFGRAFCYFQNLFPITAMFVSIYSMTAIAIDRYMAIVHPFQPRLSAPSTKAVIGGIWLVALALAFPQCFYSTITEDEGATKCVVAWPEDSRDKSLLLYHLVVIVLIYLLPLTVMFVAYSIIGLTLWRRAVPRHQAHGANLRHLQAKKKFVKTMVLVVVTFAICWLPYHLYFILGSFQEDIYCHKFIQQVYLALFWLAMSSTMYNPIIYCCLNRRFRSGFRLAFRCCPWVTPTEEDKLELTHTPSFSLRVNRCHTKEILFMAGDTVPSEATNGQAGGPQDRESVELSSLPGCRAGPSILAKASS

Protachykinin-1 [2] = molecular target: T2, Protachykinin-1 (Mus musculus, UniProt P41539)
T2 sequence (P41539 whole entry): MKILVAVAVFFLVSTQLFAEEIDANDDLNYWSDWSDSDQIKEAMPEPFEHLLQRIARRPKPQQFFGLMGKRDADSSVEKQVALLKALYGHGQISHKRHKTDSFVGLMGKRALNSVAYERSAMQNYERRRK

Protachykinin-1 [3] = molecular target: T3, Protachykinin-1 (Rattus norvegicus, UniProt P06767)
T3 sequence (P06767 whole entry): T2 sequence (P41539 whole entry) with D23G, V77I

Substance P = Substance P (Cavia porcellus, UniProt P67932)
ATP synthase subunit a = molecular target: T4, ATP synthase subunit a (Rattus norvegicus, UniProt P05504)
T4 sequence (P05504 whole entry): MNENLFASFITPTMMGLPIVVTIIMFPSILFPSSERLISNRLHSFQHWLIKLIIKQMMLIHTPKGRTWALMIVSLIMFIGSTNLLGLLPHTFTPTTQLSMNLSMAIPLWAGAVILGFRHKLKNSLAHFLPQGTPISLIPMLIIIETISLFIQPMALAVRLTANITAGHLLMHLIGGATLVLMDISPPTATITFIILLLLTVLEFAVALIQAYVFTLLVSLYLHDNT

| Ki (Eledoisin) | Ki [1] | Ki (Substance-K receptor) | Ki (Protachykinin-1 [2]) | Ki (Protachykinin-1 [3]) | Ki (Substance P) | Ki (ATP synthase subunit a) | Molecule |
| --- | --- | --- | --- | --- | --- | --- | --- |
| 10 nM | 0.5 nM | 1.3 nM | 1 nM and 4 nM | 1.3 nM and 4.6 nM | 8 nM |  | CSCC[C@H](NC(=O)[C@H](CC(C)C)NC(=O)CNC(=O)[C@@H](NC(=O)[C@H](Cc1ccccc1)NC(=O)[C@H](CO)NC(=O)[C@H](CC(=O)O)NC(=O)[C@@H](NC(=O)[C@H](CCCCN)NC(=O)[C@@H](N)Cc1cnc[nH]1)[C@@H](C)O)C(C)C)C(N)=O [Neurokinin alpha] |
| 2.6 nM | 0.5 nM | 11 nM | 7 nM | 6 nM and 9 nM | 9 nM | 4.1 nM and 1.9 nM | H-DVPKSDQFVGLM-NH2 [CAS_45749] |
| 17 nM | 10 nM | 200 nM | 20 nM and 80 nM | 50 nM and 56 nM | 35 nM | 4.7 nM and 6 nM | CSCC[C@H](NC(=O)[C@H](CC(C)C)NC(=O)CNC(=O)[C@@H](NC(=O)[C@H](Cc1ccccc1)NC(=O)[C@H](Cc1ccccc1)NC(=O)[C@H](CC(=O)O)NC(=O)[C@H](Cc1c[nH]cn1)NC(=O)[C@H](CCSC)NC(=O)[C@@H](N)CC(=O)O)C(C)C)C(N)=O [NSC_5311312] |
| 14 nM | 17 nM | 340 nM | 175 nM |  | 0.7 nM | 23 nM and 30 nM | CSCC[C@H](NC(=O)[C@H](CC(C)C)NC(=O)CNC(=O)[C@H](Cc1ccc(O)cc1)NC(=O)[C@H](Cc1ccccc1)NC(=O)[C@H](CCCCN)NC(=O)[C@H](CC(N)=O)NC(=O)[C@@H]1CCCN1C(=O)[C@H](CC(=O)O)NC(=O)[C@H](C)NC(=O)[C@@H]1CCC(=O)N1)C(N)=O [physalaemin] (HELM PEPTIDE1{[Glp].A.D.P.N.K.F.Y.G.L.M.[am]}$$$$V2.0) |
| 19 nM | 47 nM | 200 nM |  |  | 0.2 nM | 106 nM and 21 nM | CSCC[C@H](NC(=O)[C@H](CC(C)C)NC(=O)CNC(=O)[C@H](Cc1ccccc1)NC(=O)[C@H](Cc1ccccc1)NC(=O)[C@H](CCC(N)=O)NC(=O)[C@H](CCC(N)=O)NC(=O)[C@@H]1CCCN1C(=O)[C@H](CCCCN)NC(=O)[C@@H]1CCCN1C(=O)[C@@H](N)CCCN=C(N)N)C(N)=O [Arg-Pro-Lys-Pro-Gln-Gln-Phe-Phe-Gly-Leu-Met NH2] |
| 2.2 nM |  | 15 nM | 9 nM and 5 nM | 16 nM and 9 nM | 9 nM | 4.2 nM and 3 nM | CC[C@H](C)[C@H](NC(=O)[C@H](Cc1ccccc1)NC(=O)[C@H](C)NC(=O)[C@H](CC(=O)O)NC(=O)[C@H](CCCCN)NC(=O)[C@H](CO)NC(=O)[C@@H]1CCCN1C(=O)[C@@H]1CCC(=O)N1)C(=O)NCC(=O)N[C@@H](CC(C)C)C(=O)N[C@@H](CCSC)C(N)=O (HELM PEPTIDE1{[Glp].P.S.K.D.A.F.I.G.L.M.[am]}$$$$V2.0) |
